Laboratory results taken from ChEMBL document CHEMBL1158859, “Antiprotozoal compounds from Asparagus africanus” (J Nat Prod, 1997).

What was measured:
[1] = system: Leishmania major; assay: Antileishmanial activity against Leishmania major promastigotes assessed as inhibition of [3H]thymidine uptake after 18 hrs by scintillation counting; type: functional, organism-based
[2] = Selectivity index, ratio of IC50 for human lymphocyte to IC50 for chloroquine-resistant Plasmodium falciparum V1/S
[3] = Inhibition of phytohemagglutininin A-induced human lymphocyte proliferation assessed as radiolabeled [14C]thymidine uptake; type: cell-based
[4] = system: Plasmodium falciparum; assay: Antiplasmodial activity against chloroquine-sensitive Plasmodium falciparum K39 after 48 hrs by [3H]hypoxanthine uptake; type: functional, organism-based
[5] = Selectivity index, ratio of IC50 for human lymphocyte to IC50 for chloroquine-susceptible Plasmodium falciparum 3D7
[6] = system: Plasmodium falciparum; assay: Antiplasmodial activity against Plasmodium falciparum schizonts assessed as [3H]hypoxanthine incorporation by liquid scintillation counting; type: functional, organism-based; conditions: Dd2
[7] = Selectivity index, ratio of IC50 for human lymphocyte to IC50 for Leishmania major
[8] = system: Plasmodium falciparum; assay: Antiplasmodial activity against chloroquine-resistant Plasmodium falciparum V1/S after 48 hrs by [3H]hypoxanthine uptake; type: functional, organism-based
[9] = Selectivity index, ratio of IC50 for human lymphocyte to IC50 for chloroquine-resistant Plasmodium falciparum Dd2
[10] = Selectivity index, ratio of IC50 for human lymphocyte to IC50 for chloroquine-susceptible Plasmodium falciparum K39
[11] = system: Plasmodium falciparum; assay: Antiplasmodial activity against chloroquine-susceptible Plasmodium falciparum 3D7 after 24 hrs by [3H]hypoxanthine uptake; type: functional, organism-based
[12] = system: Plasmodium falciparum; assay: Antiplasmodial activity against chloroquine-resistant Plasmodium falciparum Dd2 after 24 hrs by [3H]hypoxanthine uptake; type: functional, organism-based

Question: For `C[C@@H]1CC[C@@]2(OC1)O[C@H]1C[C@H]3C4=CCC5=CC(=O)[C@@H](O)C[C@]5(C)[C@H]4C[C@H](O)[C@]3(C)[C@H]1[C@@H]2C` [MUZANZAGENIN], which Activity [1] is on record?
Answer: Its Activity is “Dose-dependent effect”.

Question: What about the IC50 [1] of the same molecule?
Answer: Its IC50 is 70 µM.

Question: And the “Ratio IC50” value [2]?
Answer: The value was 0.8.

Question: And the IC50 [3]?
Answer: The IC50 was 129 µM.

Question: What about the Activity [4] of the same molecule?
Answer: The Activity was “Dose-dependent effect”.

Question: And the IC50 [4]?
Answer: Its IC50 is 61 µM.

Question: And the “Ratio IC50” value [5]?
Answer: The value was 5.6.

Question: What about the Activity [6] of the same molecule?
Answer: Its Activity is “Dose-dependent effect”.

Question: What about the IC50 [6] of the same molecule?
Answer: The IC50 was 16 µM.

Question: And the “Ratio IC50” value [7]?
Answer: Its value is 1.8.

Question: What about the Activity [8] of the same molecule?
Answer: Its Activity is “Dose-dependent effect”.

Question: And the IC50 [8]?
Answer: Its IC50 is 163 µM.

Question: And the “Ratio IC50” value [9]?
Answer: Its value is 8.

Question: And the “Ratio IC50” value [10]?
Answer: The value was 2.1.

Question: And the Activity [11]?
Answer: The Activity was “Dose-dependent effect”.

Question: And the IC50 [11]?
Answer: The IC50 was 23 µM.

Question: With `C=C[C@H](/C=C\c1ccc(O)cc1)c1ccc(O)cc1` [NYASOL] as the molecule, how does the IC50 [1] read?
Answer: Its IC50 is 12 µM.

Question: And the IC50 [3]?
Answer: Its IC50 is 200 µM.

Question: And the “Ratio IC50” value [5]?
Answer: The value was 16.7.

Question: What about the IC50 [12] of the same molecule?
Answer: Its IC50 is 49 µM.

Question: What about the IC50 [6] of the same molecule?
Answer: Its IC50 is 12 µM.

Question: And the “Ratio IC50” value [7]?
Answer: Its value is 4.1.

Question: And the “Ratio IC50” value [9]?
Answer: Its value is 16.7.

Question: And the IC50 [11]?
Answer: The IC50 was 12 µM.
